Values of other authors in US20230000917A1, “TREATMENT OF HEPATITIS B VIRUS (HBV) INFECTION” (UCL BUSINESS LTD, priority 2019, published 2023).

Experiments:
[1] = in vivo
[2] = in vivo; remark: listed apart in the source
[3] = test system: macrophage foam cell formation and atherosclerosis progression; details: oral administration, animal models

Structure (SMILES) | oral bioavailability [1] | plasma VLDL-cholesterol [2] | plasma total triglyceride [2] | macrophage foam cell formation and atherosclerosis progression [3]
CC(C)c1cc(C(C)C)c(CC(=O)NS(=O)(=O)Oc2c(C(C)C)cccc2C(C)C)c(C(C)C)c1 [Avasimibe] | orally bioavailable | significantly reduce | significantly reduce | –
CSc1cc(C)nc(SC)c1NC(=O)CN1CCN(CCSc2nc3ccccc3[nH]2)CC1.Cl.Cl [K604, 4-[2-(1H-Benzimidazol-2-ylthio)ethyl]-N-[6-methyl-2,4-bis(methylthio)-3-pyridinyl]-1-piperazineacetamide dihydrochloride] | – | – | – | promising results
